From US20100184802A1, “Bicycloheteroaryl Compounds as P2X7 Modulators and Uses Thereof” (priority 2006, published 2010)

Target: T1, P2X7 receptor (IL-1β release from THP-1 cells) (Homo sapiens, UniProt Q99572)
T1 construct: host or cells: THP-1 cells differentiated with LPS and IFN-γ
T1 sequence (Q99572 1-595): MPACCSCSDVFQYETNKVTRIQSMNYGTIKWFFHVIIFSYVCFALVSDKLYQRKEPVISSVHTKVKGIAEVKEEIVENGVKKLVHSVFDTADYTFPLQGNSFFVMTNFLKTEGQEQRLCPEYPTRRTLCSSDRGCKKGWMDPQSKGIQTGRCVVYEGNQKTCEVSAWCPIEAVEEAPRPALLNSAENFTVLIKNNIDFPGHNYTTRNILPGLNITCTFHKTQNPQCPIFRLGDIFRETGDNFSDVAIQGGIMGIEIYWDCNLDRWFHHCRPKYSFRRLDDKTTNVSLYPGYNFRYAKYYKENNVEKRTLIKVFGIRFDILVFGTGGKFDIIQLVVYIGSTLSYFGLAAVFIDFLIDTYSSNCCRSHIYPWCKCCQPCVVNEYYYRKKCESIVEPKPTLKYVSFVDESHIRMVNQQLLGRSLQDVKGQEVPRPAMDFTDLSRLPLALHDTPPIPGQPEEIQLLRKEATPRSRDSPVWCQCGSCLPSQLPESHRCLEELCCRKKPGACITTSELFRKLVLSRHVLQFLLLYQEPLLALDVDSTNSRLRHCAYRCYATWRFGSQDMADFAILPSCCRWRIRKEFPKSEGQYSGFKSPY
Test: IL-1β release assay in differentiated THP-1 cells stimulated with BzATP (Example 9)
Format: cell-based
Conditions: for inhibition at 0.1 µM: 0.1 μM concentration; for inhibition at 0.1 µM / inhibition at 0.3 µM: read-out: IL-1β % Inhib. @ 0.3 or 0.1 μM; for IC50: released IL-1β as in Example 9, four parameter logistic fit
Experimental: The cells are then pretreated for 30 minutes with the compound of interest at the appropriate concentration in RPMI media containing 100 IU/mL penicillin, 100 ug/mL streptomycin. […] 30 uL of cell supernatant is then collected and IL-1β levels determined via ELISA (R&D systems Cat. #HSLB50) according to manufacturer's recommendations using the Tecan Safire plate reader. Background adjusted IL-1β levels of drug treated and non-treated cells are used to calculate the percent inhibition.
The compounds set forth in Table 1 were tested for activity in a cellular model as described herein. […] Measurements were made and IC50 values, presented in Table 2, below, were determined by fitting the data to a four parameter logistic equation using GraphPad Prism software (GraphPad Software, Inc). The equation may be expressed by the following formula:
Y=Bottom+(Top−Bottom)/(1+10̂((Log EC50−X)*HillSlope))
Where X is the logarithm of concentration, Y is the response and Y starts at Bottom and goes to Top with a sigmoid shape.

[1] = 0.3 μM concentration, BzATP 250 uM

| Compound | inhibition at 0.1 µM (BzATP 250 uM) [%] | inhibition at 0.3 µM [1] [%] | IC50 [nM] | IL-1β % Inhib. @ 0.3 or 0.1 μM [1] |
| --- | --- | --- | --- | --- |
| CC(O)Cn1ccc2c(NC(=O)C34C[C@@H]5C[C@@H](C[C@@H]3C5)C4)cccc2c1=O (stereo partly shown) [Compound 566] | 0 to 25 |  |  |  |
| O=C(CC12CC3CC(CC(C3)C1)C2)Nc1cccc2c(=O)n(CC3CCCN3)ccc12 (stereo not shown) [Compound 504] |  | > 76 | 1.56 |  |
| CC(C)[C@H](CO)n1ccc2c(NC(=O)CC3CCCCCC3)cccc2c1=O [Compound 591, 2-Cycloheptyl-N-[2-((R)-1-hydroxymethyl-2-methyl-propyl)-1-oxo-1,2-dihydro-isoquinolin-5-yl]-acetamide] |  | > 76 | 3.42 |  |
| CC(C)(CO)n1ccc2c(NC(=O)CC3CCCCCC3)cccc2c1=O [Compound 614] |  | > 76 | 91.4 |  |
| CC(=O)NCCn1ccc2c(NC(=O)CC3CCCCCC3)cccc2c1=O [Compound 611, N-[2-(2-Acetylamino-ethyl)-1-oxo-1,2-dihydro-isoquinolin-5-yl]-2-cycloheptyl-acetamide] |  | 51 to 75 |  |  |
| C[C@H](CO)n1ccc2c(NC(=O)CC34CC5CC(C)(CC(C)(C5)C3)C4)cccc2c1=O [Compound 525] |  | > 76 | 3.23 |  |
| CC(C)[C@H](C(N)=O)n1ccc2c(NC(=O)CC34CC5CC(CC(C5)C3)C4)cccc2c1=O [Compound 536] |  |  | 0.202 | ++++ (compound exhibited 76% or greater inhibition at 0.3 μM concentration) |
| NC(=O)[C@H](Cc1ccccc1)n1ccc2c(NC(=O)CC34CC5CC(CC(C5)C3)C4)cccc2c1=O [Compound 502] | 51 to 75 |  |  |  |
| CC(C)C[C@H](CO)n1ccc2c(NC(=O)CC34CC5CC(CC(C5)C3)C4)cccc2c1=O [Compound 585, 2-Adamantan-1-yl-N-[2-((R)-1-hydroxymethyl-3-methyl-butyl)-1-oxo-1,2-dihydro-isoquinolin-5-yl]-acetamide] |  | > 76 | 1.38 |  |
| NC(=O)C(Cc1c[nH]cn1)n1ccc2c(NC(=O)CC34CC5CC(CC(C5)C3)C4)cccc2c1=O (stereo not shown) [Compound 514] |  | > 76 | 1.36 |  |
| NC(=O)Cn1ccc2c(NC(=O)CC34CC5CC(CC(C5)C3)C4)cccc2c1=O [Compound 509] |  | > 76 | 0.271 |  |
| CC(C)(O)Cn1ccc2c(NC(=O)[C@H]3CC[C@H](C)CC3)cccc2c1=O [Compound 568] | 0 to 25 |  |  |  |
| C[C@H](C(=O)NC1CC1)n1ccc2c(NC(=O)CC34CC5CC(CC(C5)C3)C4)cccc2c1=O [Compound 598, (R)-2-[5-(2-Adamantan-1-yl-acetyl-amino)-1-oxo-1H-isoquinolin-2-yl]-N-cyclopropyl-propionamide] |  | > 76 | 0.698 |  |
| CC(O)Cn1ccc2c(NC(=O)CC3C[C@@H]4CC[C@H]3C4)cccc2c1=O (stereo partly shown) [Compound 564] | 51 to 75 |  |  |  |
| CC(C)C(CO)n1ccc2c(NC(=O)CC34CC5CC(CC(C5)C3)C4)cccc2c1=O (stereo not shown) [Compound 516, 2-Adamantan-1-yl-N-[2-(1-hydroxymethyl-2-methyl-propyl)-1-oxo-1,2-dihydro-isoquinolin-5-yl]-acetamide] |  | > 76 | 0.049 |  |
| CC1(C)CC(C)(C)CC(O)(CC(=O)Nc2cccc3c(=O)n(CCO)ccc23)C1 [Compound 546] |  | > 76 | 135 |  |
| C[C@@H](CO)n1ccc2c(NC(=O)CC3CCCCCC3)cccc2c1=O [Compound 605, 2-Cycloheptyl-N-[2-((S)-2-hydroxy-1-methyl-ethyl)-1-oxo-1,2-dihydro-isoquinolin-5-yl]-acetamide] |  | > 76 | 66.5 |  |
| CC(C)(CO)n1ccc2c(NC(=O)CC34CC5CC(CC(C5)C3)C4)cccc2c1=O [Compound 613, 2-Adamantan-1-yl-N-[2-(2-hydroxy-1,1-dimethyl-ethyl)-1-oxo-1,2-dihydro-isoquinolin-5-yl]acetamide] |  | > 76 | 3.78 |  |
| CC1(C)CC(CC(=O)Nc2cccc3c(=O)n([C@@H](C(N)=O)c4ccccc4)ccc23)CC(C)(C)C1 [Compound 593, (R)-2-{1-Oxo-5-[2-(3,3,5,5-tetramethylcyclohexyl)-acetylamino]-1H-isoquinolin-2-yl}-2-phenyl-acetamide] |  | > 76 | 4.09 |  |
| C[C@@H](CO)N1CCc2c(NC(=O)CC34CC5CC(C)(CC(C)(C5)C3)C4)cccc2C1=O [Compound 535] |  | > 76 | 0.341 |  |
| CC(C)(O)Cn1ccc2c(NC(=O)[C@@]34C[C@@H]5C[C@@H](C[C@@H]3C5)C4)cccc2c1=O [Compound 570] | 0 to 25 |  |  |  |

Further lines, with some results ahead:

| inhibition at 0.1 µM (BzATP 250 uM) [%] | inhibition at 0.3 µM [1] [%] | IC50 [nM] | Compound | IL-1β % Inhib. @ 0.3 or 0.1 μM [1] |
| --- | --- | --- | --- | --- |
| > 76 |  |  | CC1CNC(CN2CCc3c(NC(=O)CC45CC6CC(CC(C6)C4)C5)cccc3C2=O)CN1 (stereo not shown) [Compound 503] |  |
|  | > 76 | 75.6 | O=C(CC1CCCCCC1)Nc1cccc2c(=O)n(C(CO)CO)ccc12 [Compound 560, 2-Cycloheptyl-N-[2-(2-hydroxy-1-hydroxymethyl-ethyl)-1-oxo-1,2-dihydro-isoquinolin-5-yl]-acetamide] |  |
|  | > 76 | 48.2 | C[C@H](C(N)=O)n1ccc2c(NC(=O)CC34CC5CC(CC(O)(C5)C3)C4)cccc2c1=O [Compound 581] |  |
|  | > 76 | 44.7 | CC(C)[C@H](C(=O)O)n1ccc2c(NC(=O)CC3CCCCCC3)cccc2c1=O [Compound 610] |  |
|  | > 76 | 0.65 | O=C(CC12CC3CC(CC(C3)C1)C2)Nc1cccc2c(=O)n(C[C@@H]3CCCN3)ccc12 [Compound 505] |  |
|  | > 76 |  | O=C(CC1CCCCCC1)Nc1cccc2c(=O)n(C[C@H]3CCCN3)ccc12 [Compound 576] |  |
|  | > 76 | 0.315 | C[C@@H](CO)n1ccc2c(NC(=O)CC34CC5CC(CC(C5)C3)C4)cccc2c1=O [Compound 521] |  |
|  | 51 to 75 | 266 | O=C(CC1CCCCC1)Nc1cccc2c(=O)n(C(CO)CO)ccc12 [Compound 550] |  |
|  | > 76 | 38.2 | NC(=O)Cn1ccc2c(NC(=O)CC3CCCCCC3)cccc2c1=O [Compound 561, 2-(5-(2-Cycloheptyl-acetylamino)-1-oxo-1H-isoquinolin-2-yl)-acetamide] |  |
|  | > 76 | 4.13 | CC(C(N)=O)n1ccc2c(NC(=O)CC34CC5CC(C)(CC(C)(C5)C3)C4)cccc2c1=O (stereo not shown) [Compound 531] |  |
|  | > 76 | 1 | O=C(CC12CC3CC(CC(C3)C1)C2)Nc1cccc2c(=O)n(C[C@H]3CCCN3)ccc12 [Compound 506] |  |
|  | > 76 | 0.149 | C[C@@H](CO)N1CCc2c(NC(=O)CC34CC5CC(CC(C5)C3)C4)cccc2C1=O [Compound 527] |  |
|  | 51 to 75 | 287 | CC1(C)CCCC(O)(CC(=O)Nc2cccc3c(=O)n(CCO)ccc23)C1 (stereo not shown) [Compound 547] |  |
|  | > 76 | 1.21 | CNC(=O)[C@@H](C(C)C)n1ccc2c(NC(=O)CC34CC5CC(CC(C5)C3)C4)cccc2c1=O [Compound 592, (R)-2-[5-(2-Adamantan-1-yl-acetylamino)-1-oxo-1H-isoquinolin-2-yl]-3,N-dimethyl-butyramide] |  |
|  | > 76 | 32.7 | NC(=O)C(CO)n1ccc2c(NC(=O)CC3CCCCCC3)cccc2c1=O (stereo not shown) [Compound 551, 2-[5-(2-Cycloheptyl-acetylamino)-1-oxo-1H-isoquinolin-2-yl]-3-hydroxy-propionamide] |  |
|  | > 76 | 81.3 | CC1(C)CC(C)(C)CC(O)(CC(=O)Nc2cccc3c(=O)n(C(CO)CO)ccc23)C1 [Compound 573] |  |
|  | 0 to 25 | > 1000 | CC(C)(C)OC(=O)N1CCC(C(=O)Nc2cccc3c(=O)n(CCO)ccc23)CC1 [Compound 537] |  |
|  | > 76 | 70.8 | C[C@H](C(N)=O)n1ccc2c(NC(=O)[C@H](C)C3CCCCCC3)cccc2c1=O [Compound 608] |  |
|  | > 76 |  | O=C(CC1CCCCCC1)Nc1cccc2c(=O)n(C[C@@H]3CCCN3)ccc12 [Compound 577] |  |
|  | > 76 | 4.79 | NC(=O)CN1CCc2c(NC(=O)CC34CC5CC(CC(C5)C3)C4)cccc2C1=O [Compound 533] |  |
